The results in this text go back to patent US7071167B2 (L'Oreal, priority 2002, dated 2006).

Where “and” joins values, the source holds several entries; their conditions need not be identical. Equal values may be shown once.

In this experiment the test system is Ca^2+ channel (L, verapamil site). As to the kind of experiment: Equilibrium binding competition on type-L calcium channels, verapamil site ([3H](-)D 888 displacement). Also on record: species or system rat. Particulars: for Mean % of binding / % of binding / Mean % of inhibition: Argireline 1.0%, magnesium gluconate 1 × 10^−4 M, combination 1 × 10^−4 M/1.0%; for % of binding: individual determinations, specific binding of 0.5 nM (3H)(-)D 888, rat cerebral cortex homogenates; for Mean % of inhibition: inhibition of specific binding. The procedure:
The studies were performed using rat cerebral cortex homogenates (isolated membranes having type-L calcium channels at their surface).
The principle of an equilibrium displacement experiment includes measuring the specific binding at equilibrium, of a given concentration of radiolabelled ligand in the presence of a variable and increasing concentration of cold ligand. The cold ligand enters into competition with the radioactive ligand for its binding to the receptor; this is why this may be termed binding competition at equilibrium.
The experimental conditions according to the protocol described by Reynolds, I. J. et al., J. Pharmacol. Exp. Ther., vol. 237, p.
D 888 and D 600 are the reference molecules specific for the type-L calcium channels, verapamil site.
The specific binding of a ligand (labelled D 888) to the receptors (type-L calcium channels, verapamil site) is defined as the difference between the total binding and the […] determined in the presence of an excess of cold ligand. The results are expressed as a percentage of specific binding and as a percentage of inhibition of specific binding in the presence of the test compounds (Argireline®).

For the substance “Acetyl glutamyl-glutamyl-methionyl-glutaminyl-arginyl-arginylamide (Ac-EEMQRR-NH2) [Argireline ®, supplied at 0.05% in water]”, the “Mean % of binding” value came out at 96.1%; the “% of binding” value was 95.1% and 93.1% and 99.9%; the “Mean % of inhibition” value is given as 4%. The “mean percentage of inhibition” value (Argireline at 5%) was determined as 36%. The “mean percentage of inhibition” value (Argireline at 10%) is given as 52%.
Take Magnesium gluconate: the “Mean % of binding” value worked out at 94.0%; the “% of binding” value is 93.8% and 95.2% and 93.0%; the “Mean % of inhibition” value is reported as 6%. The “effect on the type-L calcium channels, verapamil site (in words)” value (used alone at concentrations of 1×10^−6 M to 1×10^−4 M) is “moderate effects”.
